In the NIST ThermoML archive (doi:10.1016/j.jct.2017.05.001):

Assay: wn = mass fraction of the nth substance listed
Settings: Liquid; for mass density: Vibrating tube method

CN(C)CCO [2-(N,N-dimethylamino)ethanol] + O
viscosity [mPa·s]
Settings	293.15 K	313.15 K	333.15 K
100 kPa, Concentric cylinders viscometry, w1 = 0.1	1.587	0.947	0.623
100 kPa, Concentric cylinders viscometry, w1 = 0.2	2.614	1.408	0.888
100 kPa, Concentric cylinders viscometry, w1 = 0.3	4.334	2.102	1.226
100 kPa, Concentric cylinders viscometry, w1 = 0.4	6.754	3.068	1.671
100 kPa, Falling or rolling sphere viscometry, w1 = 0.1005	1.559	0.9401	0.6336
100 kPa, Falling or rolling sphere viscometry, w1 = 0.202	2.533	1.368	0.8725
100 kPa, Falling or rolling sphere viscometry, w1 = 0.3005	4.211	2.042	1.217
100 kPa, Falling or rolling sphere viscometry, w1 = 0.3995	6.587	2.99	1.651
5000 kPa, Falling or rolling sphere viscometry, w1 = 0.1005	1.564	0.9415	0.6341
5000 kPa, Falling or rolling sphere viscometry, w1 = 0.202	2.547	1.374	0.877
5000 kPa, Falling or rolling sphere viscometry, w1 = 0.3005	4.223	2.063	1.223
5000 kPa, Falling or rolling sphere viscometry, w1 = 0.3995	6.535	3.031	1.669
10000 kPa, Falling or rolling sphere viscometry, w1 = 0.1005	1.564	0.9437	0.6372
10000 kPa, Falling or rolling sphere viscometry, w1 = 0.202	2.557	1.382	0.8862
10000 kPa, Falling or rolling sphere viscometry, w1 = 0.3005	4.258	2.083	1.239
10000 kPa, Falling or rolling sphere viscometry, w1 = 0.3995	6.564	3.075	1.695
15000 kPa, Falling or rolling sphere viscometry, w1 = 0.1005	1.563	0.9453	0.6403
15000 kPa, Falling or rolling sphere viscometry, w1 = 0.202	2.566	1.392	0.8907
15000 kPa, Falling or rolling sphere viscometry, w1 = 0.3005	4.295	2.103	1.249
15000 kPa, Falling or rolling sphere viscometry, w1 = 0.3995	6.801	3.121	1.719
20000 kPa, Falling or rolling sphere viscometry, w1 = 0.1005	1.562	0.9476	0.6431
20000 kPa, Falling or rolling sphere viscometry, w1 = 0.202	2.574	1.395	0.897
20000 kPa, Falling or rolling sphere viscometry, w1 = 0.3005	4.33	2.121	1.26
20000 kPa, Falling or rolling sphere viscometry, w1 = 0.3995	6.863	3.164	1.742
25000 kPa, Falling or rolling sphere viscometry, w1 = 0.1005	1.561	0.9506	0.6461
25000 kPa, Falling or rolling sphere viscometry, w1 = 0.202	2.583	1.4	0.9026
25000 kPa, Falling or rolling sphere viscometry, w1 = 0.3005	4.374	2.142	1.274
25000 kPa, Falling or rolling sphere viscometry, w1 = 0.3995	6.822	3.209	1.765
30000 kPa, Falling or rolling sphere viscometry, w1 = 0.1005	1.564	0.9525	0.6477
30000 kPa, Falling or rolling sphere viscometry, w1 = 0.202	2.589	1.412	0.9063
30000 kPa, Falling or rolling sphere viscometry, w1 = 0.3005	4.405	2.161	1.283
30000 kPa, Falling or rolling sphere viscometry, w1 = 0.3995	7.027	3.253	1.789
40000 kPa, Falling or rolling sphere viscometry, w1 = 0.1005	1.564	0.957	0.6532
40000 kPa, Falling or rolling sphere viscometry, w1 = 0.202	2.605	1.423	0.9178
40000 kPa, Falling or rolling sphere viscometry, w1 = 0.3005	4.464	2.197	1.305
40000 kPa, Falling or rolling sphere viscometry, w1 = 0.3995	6.883	3.342	1.835
60000 kPa, Falling or rolling sphere viscometry, w1 = 0.1005	1.562	0.9672	0.6631
60000 kPa, Falling or rolling sphere viscometry, w1 = 0.202	2.637	1.45	0.9397
60000 kPa, Falling or rolling sphere viscometry, w1 = 0.3005	4.588	2.273	1.353
60000 kPa, Falling or rolling sphere viscometry, w1 = 0.3995	7.591	3.519	1.927
80000 kPa, Falling or rolling sphere viscometry, w1 = 0.1005	1.57	0.9775	0.6729
80000 kPa, Falling or rolling sphere viscometry, w1 = 0.202	2.672	1.479	0.9613
80000 kPa, Falling or rolling sphere viscometry, w1 = 0.3005	4.73	2.348	1.396
80000 kPa, Falling or rolling sphere viscometry, w1 = 0.3995	–	3.698	2.019
100000 kPa, Falling or rolling sphere viscometry, w1 = 0.1005	1.577	0.9881	0.685
100000 kPa, Falling or rolling sphere viscometry, w1 = 0.202	2.706	1.508	0.9835
100000 kPa, Falling or rolling sphere viscometry, w1 = 0.3005	4.861	2.424	1.442
100000 kPa, Falling or rolling sphere viscometry, w1 = 0.3995	–	3.881	2.113

mass density [kg/m3]
Settings	w1 = 0.1005	w1 = 0.202	w1 = 0.3005	w1 = 0.3995
293.15 K, 100 kPa	994.5	992.6	990.6	986.6
293.15 K, 500 kPa	994.7	992.7	990.7	986.7
293.15 K, 1000 kPa	994.8	992.9	990.9	986.9
293.15 K, 2000 kPa	995.3	993.3	991.3	987.3
293.15 K, 5000 kPa	996.5	994.4	992.4	988.4
293.15 K, 10000 kPa	998.5	996.3	994.2	990.3
293.15 K, 15000 kPa	1000.5	998.2	996	992.1
293.15 K, 20000 kPa	1002.6	1000	997.8	994
293.15 K, 30000 kPa	1006.6	1003.7	1001.4	997.5
293.15 K, 40000 kPa	1010.5	1007.4	1004.9	1001
293.15 K, 50000 kPa	1014.3	1010.8	1008.2	1004.4
293.15 K, 60000 kPa	1018.1	1014.3	1011.6	1007.7
293.15 K, 70000 kPa	1021.8	1017.9	1014.9	1011
293.15 K, 80000 kPa	1025.3	1021.1	1018	1014.1
293.15 K, 90000 kPa	1029	1024.4	1021.2	1017.3
293.15 K, 100000 kPa	1032.5	1027.7	1024.3	1020.4
293.15 K, 110000 kPa	1035.9	1030.8	1027.2	1023.2
293.15 K, 120000 kPa	1039.3	1033.9	1030.2	1026.3
293.15 K, 130000 kPa	1042.7	1037.2	1033.3	1029.2
293.15 K, 140000 kPa	1045.7	1040.1	1036	1031.9
313.15 K, 100 kPa	987.4	983.2	978.8	972.7
313.15 K, 500 kPa	987.6	983.4	979	972.9
313.15 K, 1000 kPa	987.8	983.6	979.2	973.1
313.15 K, 2000 kPa	988.3	984	979.6	973.5
313.15 K, 5000 kPa	989.5	985.2	980.8	974.7
313.15 K, 10000 kPa	991.5	987.2	982.7	976.7
313.15 K, 15000 kPa	993.4	989.1	984.6	978.6
313.15 K, 20000 kPa	995.4	990.9	986.5	980.6
313.15 K, 30000 kPa	999.4	994.8	990.3	984.4
313.15 K, 40000 kPa	1003.4	998.6	994	988.2
313.15 K, 50000 kPa	1007	1002.1	997.5	991.7
313.15 K, 60000 kPa	1010.8	1005.6	1001	995.3
313.15 K, 70000 kPa	1014.5	1009.1	1004.4	998.7
313.15 K, 80000 kPa	1018	1012.5	1007.6	1002
313.15 K, 90000 kPa	1021.4	1015.7	1010.9	1005.3
313.15 K, 100000 kPa	1024.9	1019.1	1014.1	1008.5
313.15 K, 110000 kPa	1028.3	1022.3	1017.3	1011.7
313.15 K, 120000 kPa	1031.6	1025.6	1020.4	1014.7
313.15 K, 130000 kPa	1035	1028.6	1023.4	1017.7
313.15 K, 140000 kPa	1038.2	1031.7	1026.4	1020.7
333.15 K, 100 kPa	977.4	971.5	965.2	957.4
333.15 K, 500 kPa	977.6	971.8	965.4	957.6
333.15 K, 1000 kPa	977.8	972	965.6	957.9
333.15 K, 2000 kPa	978.2	972.4	966.1	958.3
333.15 K, 5000 kPa	979.5	973.7	967.3	959.6
333.15 K, 10000 kPa	981.5	975.7	969.5	961.8
333.15 K, 15000 kPa	983.6	977.7	971.5	963.9
333.15 K, 20000 kPa	985.6	979.7	973.5	966
333.15 K, 30000 kPa	989.7	983.7	977.5	970.2
333.15 K, 40000 kPa	993.7	987.7	981.5	974.2
333.15 K, 50000 kPa	997.3	991.3	985.2	977.9
333.15 K, 60000 kPa	1001.1	995	988.9	981.7
333.15 K, 70000 kPa	1004.9	998.6	992.5	985.4
333.15 K, 80000 kPa	1008.4	1002.1	996	988.9
333.15 K, 90000 kPa	1012	1005.4	999.2	992.3
333.15 K, 100000 kPa	1015.4	1008.9	1002.7	995.8
333.15 K, 110000 kPa	1018.9	1012.2	1006	999
333.15 K, 120000 kPa	1022.3	1015.5	1009.3	1002.4
333.15 K, 130000 kPa	1025.5	–	–	–
